This assay deals with T1, 5-HT3 receptors (Rattus norvegicus, UniProt P35563).
T1 construct: from tissue; host or cells: whole anesthetized rat (in vivo)
T1 sequence (P35563 24-483): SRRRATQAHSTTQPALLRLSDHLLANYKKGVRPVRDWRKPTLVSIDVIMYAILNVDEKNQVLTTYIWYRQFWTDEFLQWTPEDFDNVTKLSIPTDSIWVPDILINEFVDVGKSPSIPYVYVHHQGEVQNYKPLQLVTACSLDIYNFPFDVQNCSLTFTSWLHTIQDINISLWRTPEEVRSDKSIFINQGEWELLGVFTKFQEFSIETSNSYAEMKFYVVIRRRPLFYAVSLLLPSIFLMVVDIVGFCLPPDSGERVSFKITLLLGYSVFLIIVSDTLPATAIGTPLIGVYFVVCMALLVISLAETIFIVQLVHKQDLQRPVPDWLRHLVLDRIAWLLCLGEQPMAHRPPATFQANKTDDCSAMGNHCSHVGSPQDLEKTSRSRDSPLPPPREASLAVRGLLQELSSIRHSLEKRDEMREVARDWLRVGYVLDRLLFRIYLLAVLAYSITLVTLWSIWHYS
The experiment in a line: Bezold-Jarish reflex in anesthetized rats (serotonin-induced bradycardia and hypotension). In kind it is in vivo. Particulars: iv, antagonist injected 5 min before serotonin (20 μg/kg i.v.), urethane-anesthetized rats. The text has this: As already mentioned hereinbefore the new compounds of formula (I), according to the present invention, have interesting pharmacological properties owing to their ability to antagonize the physiological 5-HT effects at 5-HT3 receptors in warm-blooded animals. Therefore the new compounds are commercially useful in the prevention and in the treatment of disorders wherein 5-HT3 receptors are involved, such as chemotherapy or radiation induced nausea and emesis, migraine, delayed gastric emptying, stress-induced psychological disorders, irritable bowel syndrome, arrhytmia and rhinitis.
Bezold-Jarish Reflex in Anesthetized Rats
Rats (250-275 g) were anesthetized with urethane (1.25 g/kg ip.). The blood pressure and the heart rate were recorded from the left femoral artery by means of a pressure transducer (Statham) connected with a cardiotachometer. The Bezold-Jarish reflex was elicited by rapid intravenous injection of serotonin (20 μg/kg).
Increasing doses of antagonists were injected 5 min. before serotonin to evaluate their effect on the initial bradycardia and associated fall in blood pressure resulting from the reflex vagal stimulation. In other experiments, the right vagus nerve was stimulated with platinum electrodes at 10 V, 10 Hz, 2 msec, (Grass 248 stimulator), to evoke bradycardia. ED50 values were calculated by linear regression analysis of the data expressed as percentage inhibition.

[1] abbreviates: inhibition of fall in blood pressure, read-out: Hypotension ED50.

Where a name gives a salt, the structure may show the parent alone. Read-outs that look alike come from different tables or passages of the source.

What is called ED50 is the midpoint of the dose-response relation.

With `N=CN1[C@@H]2CC[C@H]1C[C@@H](OC(=O)c1cc(Cl)cc(Cl)c1)C2` [Compound 15, endo-(8-Iminomethyl-8-azabicyclo-[3.2.1]oct-3-yl)-3,5-dichlorobenzoate hydrochloride], the ED50 is 0.5 µg/kg under setting [1] and 0.2 µg/kg (inhibition of initial bradycardia, read-out: Bradycardia ED50).
In the case of `N=CN1[C@@H]2CC[C@H]1C[C@@H](OC(=O)c1c[nH]c3ccccc13)C2` [Compound 16, endo-8-(Iminomethyl-8-azabicyclo[3.2.1]oct-3-yl)-1H-indol-3-carboxylate hydrochloride], the ED50 under setting [1] was found to be 0.3 µg/kg.

The record behind these values is US5252570A, “Amidino and guanidino derivatives” (B.I. Italia, priority 1988, dated 1993).
